Numbers after ± are expanded uncertainties.
Assay: xn = mol fraction of the nth substance listed
Conditions: Liquid, Pulse-echo method

CCCCCCC [heptane] + CCCO
Conditions	speed of sound [m/s]
293.1 K, 45590 kPa, x2 = 0.6027	1414.5 ± 1.1
293.1 K, 91190 kPa, x2 = 0.1008	1599 ± 1.3
293.1 K, 91190 kPa, x2 = 0.3008	1594.3 ± 1.2
293.1 K, 111450 kPa, x2 = 0	1674.3 ± 1.3
293.11 K, 45590 kPa, x2 = 0.1008	1412 ± 1.2
293.11 K, 121580 kPa, x2 = 0.7986	1691.8 ± 1.3
293.12 K, 100 kPa, x2 = 0.4992	1158.2 ± 1.1
293.12 K, 30400 kPa, x2 = 0.7986	1355.6 ± 1.1
293.12 K, 45590 kPa, x2 = 0.7986	1424 ± 1.1
293.12 K, 75990 kPa, x2 = 0.7986	1543.1 ± 1.2
293.13 K, 100 kPa, x2 = 0.6027	1164.9 ± 1.1
293.13 K, 30400 kPa, x2 = 0.6027	1343.3 ± 1.1
293.13 K, 45590 kPa, x2 = 0.4992	1412.6 ± 1.1
293.13 K, 60790 kPa, x2 = 0.7986	1486.1 ± 1.1
293.13 K, 75990 kPa, x2 = 0.1008	1541.8 ± 1.2
293.13 K, 121580 kPa, x2 = 0.1008	1701.6 ± 1.3
293.14 K, 100 kPa, x2 = 0.7016	1173.8 ± 1
293.14 K, 100 kPa, x2 = 0.7986	1185.8 ± 1
293.14 K, 60790 kPa, x2 = 0.6027	1478.7 ± 1.2
293.14 K, 91190 kPa, x2 = 0.6027	1592.5 ± 1.2
293.14 K, 101320 kPa, x2 = 0.1008	1634.7 ± 1.3
293.14 K, 111450 kPa, x2 = 0.3008	1663.3 ± 1.3
293.14 K, 111450 kPa, x2 = 0.7986	1661.2 ± 1.2
293.15 K, 100 kPa, x2 = 0	1151.7 ± 1.1
293.15 K, 75990 kPa, x2 = 0.6027	1537.8 ± 1.2
293.15 K, 111450 kPa, x2 = 0.1008	1668.9 ± 1.3
293.16 K, 30400 kPa, x2 = 0.7016	1348.5 ± 1.1
293.16 K, 60790 kPa, x2 = 0.4992	1478 ± 1.2
293.16 K, 75990 kPa, x2 = 0.4992	1537.8 ± 1.2
293.16 K, 91190 kPa, x2 = 0.7986	1595.9 ± 1.2
293.16 K, 101320 kPa, x2 = 0.3008	1629.5 ± 1.3
293.16 K, 111450 kPa, x2 = 0.6027	1659.8 ± 1.2
293.16 K, 121580 kPa, x2 = 0	1707.1 ± 1.4
293.16 K, 121580 kPa, x2 = 0.7016	1691 ± 1.3
293.17 K, 30400 kPa, x2 = 0.4992	1340.5 ± 1.1
293.17 K, 45590 kPa, x2 = 0.7016	1418.3 ± 1.1
293.17 K, 101320 kPa, x2 = 0.7986	1629.2 ± 1.2
293.17 K, 121580 kPa, x2 = 0.3008	1695.5 ± 1.3
293.18 K, 30400 kPa, x2 = 0	1341.5 ± 1.2
293.18 K, 60790 kPa, x2 = 0.7016	1481.6 ± 1.1
293.18 K, 101320 kPa, x2 = 0.6027	1626.9 ± 1.2
293.18 K, 111450 kPa, x2 = 0.7016	1659.9 ± 1.2
293.18 K, 121580 kPa, x2 = 0.6027	1691.2 ± 1.3
293.19 K, 45590 kPa, x2 = 0	1416.6 ± 1.2
293.19 K, 60790 kPa, x2 = 0.1008	1479.6 ± 1.2
293.19 K, 60790 kPa, x2 = 0.3008	1476.8 ± 1.2
293.19 K, 91190 kPa, x2 = 0.4992	1592.6 ± 1.2
293.19 K, 101320 kPa, x2 = 0.7016	1627.5 ± 1.2
293.2 K, 15200 kPa, x2 = 0	1256.3 ± 1.1
293.2 K, 60790 kPa, x2 = 0	1484.5 ± 1.2
293.2 K, 75990 kPa, x2 = 0	1546.5 ± 1.3
293.2 K, 75990 kPa, x2 = 0.3008	1537.7 ± 1.2
293.2 K, 75990 kPa, x2 = 0.7016	1539.8 ± 1.2
293.2 K, 91190 kPa, x2 = 0	1603.7 ± 1.3
293.2 K, 91190 kPa, x2 = 0.7016	1593.7 ± 1.2
293.2 K, 101320 kPa, x2 = 0	1639.7 ± 1.3
293.21 K, 100 kPa, x2 = 0.3008	1149.9 ± 1.1
293.21 K, 30400 kPa, x2 = 0.3008	1336.5 ± 1.1
293.21 K, 101320 kPa, x2 = 0.4992	1627.3 ± 1.2
293.21 K, 111450 kPa, x2 = 0.4992	1660.5 ± 1.3
293.22 K, 100 kPa, x2 = 0.1008	1147.3 ± 1.1
293.22 K, 15200 kPa, x2 = 0.1008	1252 ± 1.1
293.22 K, 30400 kPa, x2 = 0.1008	1337 ± 1.1
293.22 K, 45590 kPa, x2 = 0.3008	1410.2 ± 1.2
293.23 K, 121580 kPa, x2 = 0.4992	1692.2 ± 1.3
298.06 K, 121580 kPa, x2 = 0.6027	1679 ± 1.3
298.1 K, 101320 kPa, x2 = 0.3008	1616 ± 1.3
298.11 K, 75990 kPa, x2 = 0	1531.6 ± 1.3
298.13 K, 100 kPa, x2 = 0.4992	1137 ± 1.1
298.13 K, 101320 kPa, x2 = 0.4992	1614.4 ± 1.2
298.13 K, 111450 kPa, x2 = 0	1660.5 ± 1.5
298.13 K, 111450 kPa, x2 = 0.6027	1647.1 ± 1.2
298.13 K, 111450 kPa, x2 = 0.7986	1649.2 ± 1.2
298.14 K, 91190 kPa, x2 = 0.4992	1579.3 ± 1.2
298.14 K, 111450 kPa, x2 = 0.3008	1650.1 ± 1.3
298.14 K, 121580 kPa, x2 = 0	1692.4 ± 1.4
298.14 K, 121580 kPa, x2 = 0.1008	1688.8 ± 1.3
298.14 K, 121580 kPa, x2 = 0.4992	1679.9 ± 1.3
298.15 K, 100 kPa, x2 = 0.1008	1125.7 ± 1.1
298.15 K, 30400 kPa, x2 = 0.4992	1323.2 ± 1.1
298.15 K, 30400 kPa, x2 = 0.7986	1339.6 ± 1.1
298.15 K, 60790 kPa, x2 = 0.4992	1462.7 ± 1.2
298.15 K, 75990 kPa, x2 = 0.4992	1523.3 ± 1.2
298.15 K, 91190 kPa, x2 = 0	1589.4 ± 1.3
298.15 K, 101320 kPa, x2 = 0.6027	1613.9 ± 1.2
298.15 K, 111450 kPa, x2 = 0.4992	1647.9 ± 1.3
298.15 K, 121580 kPa, x2 = 0.3008	1682.7 ± 1.3
298.16 K, 100 kPa, x2 = 0	1129.9 ± 1.1
298.16 K, 45590 kPa, x2 = 0.1008	1395.7 ± 1.2
298.16 K, 45590 kPa, x2 = 0.4992	1396.7 ± 1.1
298.16 K, 45590 kPa, x2 = 0.7986	1408.9 ± 1.1
298.16 K, 101320 kPa, x2 = 0	1625.7 ± 1.3
298.16 K, 101320 kPa, x2 = 0.1008	1620.6 ± 1.3
298.16 K, 111450 kPa, x2 = 0	1660.4 ± 1.5
298.17 K, 100 kPa, x2 = 0.7986	1166.7 ± 1
298.17 K, 15200 kPa, x2 = 0.1008	1232.9 ± 1.1
298.17 K, 30400 kPa, x2 = 0.1008	1319.5 ± 1.1
